Reference: patent US20240008478A1, “Composition and Methods for Managing and Controlling Lepidopteran Insects” (priority 2022, published 2024)
Where a name gives a salt, the structure may show the parent alone.

Legend:
[1] = test system: moths; test: Brazilian cotton field trial, compared with grower's standard methomyl cover spray (dead moth counts); assay type: in vivo, noctuid moths; conditions: methomyl alone sprayed over the entire crop, grower's standard rate; for 5 days after the application
Procedure: Initial work on products of the present disclosure consisted of a blend of oleoresins designed to mimic the attractive volatiles used by adult noctuids to identify sugar-rich sources of floral nectar. This blend also contains a number of sugar-based and proteic phagostimulants (feeding stimulants) to encourage the target insects to feed on the formulation to full engorgement. When a pesticide is added to this product, these components encourage megadose intake of the incorporated killing agent. This minimizes the risk of sub-lethal exposure, a contributing factor to the development of resistance. To further reduce the risk of resistance, the product may be designed as a tank mix to be blended with a small dose of the user's pesticide of choice just prior to application. This characteristic makes the product an extremely adaptable pest management solution and lends itself well to pesticide rotation programs. The product was originally tested in cotton and soybean fields in South America, where noctuid pests pose a significant economic threat to multiple crops. […]

[2] = test system: H. zea; conditions: hollow fiber formulation; 12-ha maize field; cited from earlier work

CNC(=O)ON=C(C)SC [methomyl]
dead moths recovered [1]: no or very few dead moths

CCCC/C=C\CCCCCCCCOC=O [(Z)-9-tetradecenyl formate]
rate of mating [2]: cut in half
